For one assay, the target named is KRAS G12D (Homo sapiens, UniProt P01116, G12D). In words: GDP-GTP exchange assay, KRAS G12D (bodipy-GDP/GppNHp, SOS1). The class given is biochemical. To be noted: bodipy-loaded KRAS G12D 2.5 nM, 4 hours incubation after GppNHp-SOS1; read-out: G12D_exchange (KRAS_G12D exchange assay IC50). Here is the method:
The inhibitor potency of the exemplified compounds was determined in a fluorescence based guanine nucleotide exchange assay, which measures the exchange of bodipy-GDP (fluorescently labeled GDP) for GppNHp (Non-hydrolyzable GTP analog) to generate the active state of KRAS in the presence of SOS1 (guanine nucleotide exchange factor). Inhibitors were serially diluted in DMSO and a volume of 0.1 μL was transferred to the wells of a black low volume 384-well plate. 5 μL/well volume of bodipy-loaded KRAS G12C diluted to 5 nM in assay buffer (25 mM Hepes pH 7.5, 50 mM NaCl, 10 mM MgCl2 and 0.01% Brij-35) was added to the plate and pre-incubated with inhibitor for 2 hours at ambient temperature. Appropriate controls (enzyme with no inhibitor or with a G12C inhibitor (AMG-510)) were included on the plate. The exchange was initiated by the addition of a 5 μL/well volume containing 1 mM GppNHp and 300 nM SOS1 in assay buffer. The 10 μL/well reaction concentration of the bodipy-loaded KRAS G12C, GppNHp, and SOS1 were 2.5 nM, 500 uM, and 150 nM, respectively. The reaction plates were incubated at ambient temperature for 2 hours, a time estimated for complete GDP-GTP exchange in the absence of inhibitor. […] Fluorescence intensities were measured on a PheraStar plate reader instrument (BMG Labtech) with excitation at 485 nm and emission at 520 nm. […]

The next assay deals with KRAS G12C (Homo sapiens, UniProt P01116, G12C). In words: GDP-GTP exchange assay, KRAS G12C (bodipy-GDP/GppNHp, SOS1). The class given is biochemical. To be noted: bodipy-loaded KRAS G12C 2.5 nM, 2 hours pre-incubation, 2 hours exchange with GppNHp and SOS1; read-out: G12C_exchange (KRAS_G12C exchange assay IC50). Here is the method: The inhibitor potency of the exemplified compounds was determined in a fluorescence based guanine nucleotide exchange assay, which measures the exchange of bodipy-GDP (fluorescently labeled GDP) for GppNHp (Non-hydrolyzable GTP analog) to generate the active state of KRAS in the presence of SOS1 (guanine nucleotide exchange factor). Inhibitors were serially diluted in DMSO and a volume of 0.1 μL was transferred to the wells of a black low volume 384-well plate. 5 μL/well volume of bodipy-loaded KRAS G12C diluted to 5 nM in assay buffer (25 mM Hepes pH 7.5, 50 mM NaCl, 10 mM MgCl2 and 0.01% Brij-35) was added to the plate and pre-incubated with inhibitor for 2 hours at ambient temperature. Appropriate controls (enzyme with no inhibitor or with a G12C inhibitor (AMG-510)) were included on the plate. The exchange was initiated by the addition of a 5 μL/well volume containing 1 mM GppNHp and 300 nM SOS1 in assay buffer. The 10 μL/well reaction concentration of the bodipy-loaded KRAS G12C, GppNHp, and SOS1 were 2.5 nM, 500 uM, and 150 nM, respectively. The reaction plates were incubated at ambient temperature for 2 hours, a time estimated for complete GDP-GTP exchange in the absence of inhibitor. For the KRAS G12D and G12V mutants, similar guanine nucleotide exchange assays were used with 2.5 nM as final concentration for the bodipy loaded KRAS proteins and with 4 hours and 3 hours incubation after adding GppNHp-SOS1 mixture for G12D and G12V respectively. A cyclic peptide described to selectively bind G12D mutant (Sakamoto et al., BBRC 484.3 (2017), 605-611) or internal compounds with confirmed binding were used as positive controls in the assay plates. Fluorescence intensities were measured on a PheraStar plate reader instrument (BMG Labtech) with excitation at 485 nm and emission at 520 nm.
Either GraphPad prism or XLfit was used to analyze the data. The IC50 values were derived by fitting the data to a four parameter logistic equation producing a sigmoidal dose-response curve with a variable Hill coefficient. Prism equation: Y=Bottom+(Top−Bottom)/(1+10^((Log IC50−X)*Hill slope)); XLfit equation: Y=(A+((B−A)/(1+((X/C)^D)))) where X is the logarithm of inhibitor concentration and Y is the response.

Assay [1] relates to MIA PaCa-2 (KRAS G12C) cells. In words: Cellular pERK HTRF assay, KRAS_G12C pERK. To be noted: Homo sapiens, 4 hours incubation, HTRF phospho-ERK 1/2, read-out: G12C_pERK (KRAS_G12C pERK assay IC50). The class given is cell-based. Here is the method:
MIA PaCa-2 (KRAS G12C; ATCC® CRL-1420), A427 (KRAS G12D; ATCC® HTB53), HPAF-II (KRAS G12D; ATCC® CRL-1997) and NCI-H838 (KRAS WT; ATCC® CRL-5844) cells are purchased from ATCC and maintained in RPMI 1640 media supplemented with 10% FBS (Gibco/Life Technologies). The cells are plated at 5000 cells per well (8 uL) into Greiner 384-well low volume, flat-bottom, tissue culture treated white plates and incubated overnight at 37° C., 5% CO2. The next morning, test compound stock solutions are diluted in media at 3× the final concentration, and 4 uL are added to the cells. The plate is mixed by gentle rotation for 30 seconds (250 rpm) at room temperature. The cells are incubated with the KRAS G12C and G12D compounds for 4 hours or 2 hours respectively at 37° C., 5% CO2.
4 uL of 4× lysis buffer with blocking reagent (1:25) (Cisbio) are added to each well and plates are rotated gently (300 rpm) for 30 minutes at room temperature. 4 uL per well of Cisbio anti Phospho-ERK 1/2 d2 is mixed with anti Phospho-ERK 1/2 Cryptate (1:1) are added to each well, mixed by rotation and incubated overnight in the dark at room temperature. Plates are read on the Pherastar plate reader at 665 nm and 620 nm wavelengths. IC50 determination is performed by fitting the curve of inhibitor percent inhibition versus the log of the inhibitor concentration using the GraphPad Prism 7 software.
Background: Time-resolved FRET reads energy transfer from a long-lived donor to a nearby acceptor.

Chain of KRAS G12C (P01116 1-188 isoform P01116-2 G12C): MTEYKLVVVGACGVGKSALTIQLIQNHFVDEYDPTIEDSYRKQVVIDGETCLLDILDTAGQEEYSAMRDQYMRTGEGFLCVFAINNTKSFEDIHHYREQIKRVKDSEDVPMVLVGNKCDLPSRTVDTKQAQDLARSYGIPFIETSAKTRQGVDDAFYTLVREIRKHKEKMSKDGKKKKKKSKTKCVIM
Chain of KRAS G12D (P01116 1-188 isoform P01116-2 G12D): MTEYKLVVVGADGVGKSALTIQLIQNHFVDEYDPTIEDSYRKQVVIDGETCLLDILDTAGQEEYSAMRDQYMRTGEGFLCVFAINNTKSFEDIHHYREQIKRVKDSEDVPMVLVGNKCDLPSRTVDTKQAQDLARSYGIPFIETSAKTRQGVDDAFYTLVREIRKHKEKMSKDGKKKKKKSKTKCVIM

On to `CNCCc1nc2c(N3CC(N(C)C)C3)nc3c(=O)n(-c4cc(O)cc5ccccc45)ccc3c2n1[C@H]1[C@H]2CN[C@@H]1C2` (racemic) [Example 3, 1-((1R,4R,5S)-2-azabicyclo[2.1.1]hexan-5-yl)-4-(3-(dimethylamino)azetidin-1-yl)-7-(3-hydroxynaphthalen-1-yl)-2-(2-(methylamino)ethyl)-1,7-dihydro-6H-imidazo[4,5-c][1,7]naphthyridin-6-one], for which the IC50 (usually the concentration that inhibits the measured activity by half) on KRAS G12D was 100 to 1000 nM.
`C=CC(=O)N1CC[C@H](n2cnc3c(N4CC(N(C)C)C4)nc4c(=O)n(-c5cc(O)cc6ccccc56)ccc4c32)C[C@H]1CC#N` [Example 1, 2-((2S,4S)-1-acryloyl-4-(4-(3-(dimethylamino)azetidin-1-yl)-7-(3-hydroxynaphthalen-1-yl)-6-oxo-6,7-dihydro-1H-imidazo[4,5-c][1,7]naphthyridin-1-yl)piperidin-2-yl)acetonitrile]: the figures for the IC50 (on KRAS G12C; in assay [1]) were at most 100 nM and 1000 to 5000 nM, respectively.
For the compound `CC#CC(=O)N1CC[C@H](n2cnc3c(N4CC(N(C)C)C4)nc4c(=O)n(-c5cc(O)cc6ccccc56)ccc4c32)C[C@H]1CC#N` [Example 2, 2-((2S,4S)-1-(but-2-ynoyl)-4-(4-(3-(dimethylamino)azetidin-1-yl)-7-(3-hydroxynaphthalen-1-yl)-6-oxo-6,7-dihydro-1H-imidazo[4,5-c][1,7]naphthyridin-1-yl)piperidin-2-yl)acetonitrile], the IC50 is at most 100 nM at KRAS G12C and 1000 to 5000 nM in assay [1].
As for `C=CC(=O)N1CC[C@H](n2cnc3c(N4CC(N(C)C)C4)nc4c(c32)CCN(c2cccc3ccccc23)C4)C[C@H]1CC#N` [Example 4, 2-((2S,4S)-1-acryloyl-4-(4-(3-(dimethylamino)azetidin-1-yl)-7-(naphthalen-1-yl)-6,7,8,9-tetrahydro-1H-imidazo[4,5-c][1,7]naphthyridin-1-yl)piperidin-2-yl)acetonitrile], the half-maximal inhibitory concentration (IC50) on KRAS G12C is 100 to 1000 nM.
For `C=CC(=O)N1CC[C@H](n2cnc3c(N4CC(N(C)C)C4)nc4c(c32)CCN(c2cc(O)cc3ccccc23)C4)C[C@H]1CC#N` [Example 5, 2-((2S,4S)-1-acryloyl-4-(4-(3-(dimethylamino)azetidin-1-yl)-7-(3-hydroxynaphthalen-1-yl)-6,7,8,9-tetrahydro-1H-imidazo[4,5-c][1,7]naphthyridin-1-yl)piperidin-2-yl)acetonitrile], the IC50 on KRAS G12C was at most 100 nM; in assay [1], 1000 to 5000 nM.
With `C=CC(=O)N1CC[C@H](n2cnc3c(N4CC(N(C)C)C4)nc4c(=O)n(-c5cccc6ccccc56)c(C(F)(F)F)cc4c32)C[C@H]1CC#N` [Example 6, 2-((2S,4S)-1-acryloyl-4-(4-(3-(dimethylamino)azetidin-1-yl)-7-(naphthalen-1-yl)-6-oxo-8-(trifluoromethyl)-6,7-dihydro-1H-imidazo[4,5-c][1,7]naphthyridin-1-yl)piperidin-2-yl)acetonitrile], the half-inhibitory concentration (IC50) (at KRAS G12C; in assay [1]) was at most 100 nM each time.
For `C=CC(=O)N1CCC(n2cnc3c(-c4cccnc4C)nc4c(=O)n(-c5cccc6ccccc56)c(C(F)(F)F)cc4c32)C[C@H]1CC#N` (stereo partly drawn) [Example 7, 2-((2S)-1-acryloyl-4-(4-(2-methylpyridin-3-yl)-7-(naphthalen-1-yl)-6-oxo-8-(trifluoromethyl)-6,7-dihydro-1H-imidazo[4,5-c][1,7]naphthyridin-1-yl)piperidin-2-yl)acetonitrile], the IC50 (at KRAS G12C; in assay [1]) was at most 100 nM in each case.
Turning to `C=CC(=O)N1CC[C@H](n2cnc3c(O[C@@H](C)[C@@H]4CCCN4C)nc4c(=O)n(-c5cccc(Cl)c5C)c(C(F)(F)F)cc4c32)C[C@H]1CC#N` [Example 8, 2-((2S,4S)-1-acryloyl-4-(7-(3-chloro-2-methylphenyl)-4-((S)-1-((S)-1-methylpyrrolidin-2-yl)ethoxy)-6-oxo-8-(trifluoromethyl)-6,7-dihydro-1H-imidazo[4,5-c][1,7]naphthyridin-1-yl)piperidin-2-yl)acetonitrile], the IC50 (on KRAS G12C; in assay [1]) was at most 100 nM each time.
On to `CC#CC(=O)N1CC[C@H](n2cnc3c(O[C@@H](C)[C@@H]4CCCN4C)nc4c(=O)n(-c5cccc(Cl)c5C)c(C(F)(F)F)cc4c32)C[C@H]1CC#N` [Example 9, 2-((2S,4S)-1-(but-2-ynoyl)-4-(7-(3-chloro-2-methylphenyl)-4-((S)-1-((S)-1-methylpyrrolidin-2-yl)ethoxy)-6-oxo-8-(trifluoromethyl)-6,7-dihydro-1H-imidazo[4,5-c][1,7]naphthyridin-1-yl)piperidin-2-yl)acetonitrile], for which the IC50 (at KRAS G12C; in assay [1]) was at most 100 nM each time.
For `C=C(F)C(=O)N1CC[C@H](n2cnc3c(O[C@@H](C)[C@@H]4CCCN4C)nc4c(=O)n(-c5cccc(Cl)c5C)c(C(F)(F)F)cc4c32)C[C@H]1CC#N` [Example 10, 2-((2S,4S)-4-(7-(3-chloro-2-methylphenyl)-4-((S)-1-((S)-1-methylpyrrolidin-2-yl)ethoxy)-6-oxo-8-(trifluoromethyl)-6,7-dihydro-1H-imidazo[4,5-c][1,7]naphthyridin-1-yl)-1-(2-fluoroacryloyl)piperidin-2-yl)acetonitrile], the IC50 at KRAS G12C was at most 100 nM; in assay [1], 100 to 1000 nM.
`C=CC(=O)N1CC[C@H](n2nnc3c(N4CC(C)(N(C)C)C4)nc4c(=O)n(-c5cccc(Cl)c5C)c(C(F)(F)F)cc4c32)C[C@H]1CC#N` [Example 11, 2-((2S,4S)-1-acryloyl-4-(7-(3-chloro-2-methylphenyl)-4-(3-(dimethylamino)-3-methylazetidin-1-yl)-6-oxo-8-(trifluoromethyl)-6,7-dihydro-1H-[1,2,3]triazolo[4,5-c][1,7]naphthyridin-1-yl)piperidin-2-yl)acetonitrile]: the IC50 (on KRAS G12C; in assay [1]) was at most 100 nM in each case.
With `Cc1c(Cl)cccc1-n1c(C(F)(F)F)cc2c(nc(N3CC(C)(N(C)C)C3)c3nnn([C@H]4CCN(C(=O)/C=C/CF)[C@H](CC#N)C4)c32)c1=O` [Example 12, 2-((2S,4S)-4-(7-(3-chloro-2-methylphenyl)-4-(3-(dimethylamino)-3-methylazetidin-1-yl)-6-oxo-8-(trifluoromethyl)-6,7-dihydro-1H-[1,2,3]triazolo[4,5-c][1,7]naphthyridin-1-yl)-1-((E)-4-fluorobut-2-enoyl)piperidin-2-yl)acetonitrile], the IC50 (at KRAS G12C; in assay [1]) was at most 100 nM each time.
